Test results from patent US20240150372A1 (priority 2021, published 2024).
Read-outs that look alike come from different tables or passages of the source.

Tests used:
C57BL/6J mice = experiment: Mouse tail-flick test; assay type: in vivo; conditions: s.c., cumulative doses 1-30 mg/kg, 30 min post injection
Description: C57BL/6J (8-12 weeks, 22-31 g) were purchased from the Jackson Laboratory (Bar Harbor, ME) and housed 5 mice per cage with food and water available ad libitum. Mice were maintained on a 12-hr light/dark cycle (lights on 7:00-19:00) and all testing was done in the light cycle. Temperature was kept constant at 22±2° C., and relative humidity was maintained at 50±5%. Mice were moved to the testing room 30 minutes before the experiment to allow for acclimation. The body weight of each mouse and base tail-flick value were recorded. Mice were administered a 1 mg/kg s.c. dose of compound solution (volume of injection 220-310 μL based on body weight). After injection mice were returned to the home cage and allowed to rest for 30 minutes. Thirty minutes post injection the tail-flick measurement was taken using thermal stimulation via IR on a Ugo Basile unit set to 52 PSU (ten seconds was used as a maximum latency to prevent tissue damage). Mice were then administered 3 mg/kg s.c. dose, allowed to rest for 30 minutes, followed by another tail-flick measurement. […] Tail-flick latencies for the different doses were expressed as percentage of maximum potential effect (% MPE) by subtracting the experimental value by the base tail flick value then dividing by the difference between the maximum possible latency (10 seconds) and the base tail-flick value and finally multiplying by 100. […]

hSERT = hSERT (Homo sapiens (Human), UniProt P31645); experiment: hSERT fluorometric transporter inhibition assay (APP+ uptake, hSERT-HEK); assay type: cell-based
Description: (§1) Inhibition assays of transporters (hSERT and rVMAT2) were performed according to the following protocol.
(§2) Cell culture preparation and maintenance. Stably transfected hSERT-HEK and rVMAT2-HEK cellular cultures were maintained in Dulbecco's Minimal Essential Medium (DMEM) with GlutaMAX (Gibco) with the following additions: 10% (v/v) Fetal Bovine Serum (FBS, Atlanta Biologicals), 100 U/mL Penicillin (Gibco), and 10 μg/mL Streptomycin (Gibco). With regards to the former cell lineage, an additional ingredient, 500 μg/mL Geneticin (G418) (Gibco) was included to preserve the respective transgene.
(§3) hSERT and rVMAT2 fluorometric screening assays. For both hSERT and rVMAT2 screening experiments, respective singly transfected cells were seeded at a density of 0.09×10^6 cells/well in poly-D-Lysine (Alamanda Polymers, Inc.) coated white solid-bottom 96-well plates (Costar). Growth was permitted for approximately 44 hours in said aqueous media and at an incubation environment of 37° C. and 5% Carbon Dioxide. At the beginning of the experiment, the cellular growth solution was aspirated, and individual cells were rinsed with 150 μL of 1×Dulbecco's Phosphate Buffered Saline (PBS; HyClone). 63 μL of Experimental Media (consisting of the following contents: DMEM without phenol red but with 4.5 g/L of D-Glucose (Gibco), 1% (v/v) FBS (Atlanta Biologicals), 100 U/mL Penicillin (Gibco), and 10 μg/mL Streptomycin (Gibco)) with 2×tiered concentrations of inhibitor (or DMSO, the vehicle of these experiments) were added to the respective wells. […] A final solution of 120 μL of PBS is finally added to all corresponding wells for cell maintenance before undergoing fluorescence uptake reading by a BioTek H1MF plate reader. […]
(§4) Data analysis. […] Respective inhibitor values were first subtracted from vehicular values to quantify the respective fluorescence uptake. This metric was then analyzed using the dose-response-inhibitor nonlinear curve fitting model ([inhibitor] vs response (three parameters)) as supplied by GraphPad Prism 8 software. […]

rVMAT2 = rVMAT2 (Rattus norvegicus (Rat), UniProt Q01827); experiment: rVMAT2 fluorometric transporter inhibition assay (FFN206 uptake, rVMAT2-HEK); assay type: cell-based
Description: as §1, §2, §3, §4

rKOR = rKOR (Rattus norvegicus (Rat), UniProt P34975); experiment: rKOR agonist assay (cAMP), rKOR-CHO; assay type: cell-based
Description: EC50 values and % efficacy of control agonist (KOR: U-50,488) maximal response at 1 μM for rKOR-CHO were obtained by screening the selected compounds via commercially available assay services.

[1] = tested on: adult human primary ventricular myocytes; experiment: Pro-arrhythmia assay in adult human primary ventricular cardiomyocytes (contractility); assay type: cell-based; conditions: 0.1-10 μM, 1 Hz pacing
Description: Cardiac adverse effects of iboga alkaloids and related analogs was assessed via a commercially available assay, procedure reported in (Nguyen, N. et al. 2017; Page, G. et al. 2016) (FIG. 1).
Isolation of adult human primary ventricular myocytes. Adult human primary ventricular myocytes were isolated from ethically consented donor hearts. A proprietary protocol was employed to enzymatically digest hearts and isolate cardiomyocytes.
Contractility recordings procedures. Cardiomyocytes were placed in a perfusion chamber mounted on the stage of inverted Motic AE31E (IonOptix) or Olympus IX83P1ZF microscopes (MyoBlazer) and continuously perfused at approximately 2 ml/min with recording buffer heated to 35±1° C. using an in-line heater from Warner Instruments (IonOptix & MyoBlazer) and allowed to equilibrate for 5 minutes under constant perfusion. The cells were field stimulated with supra-threshold voltage at a 1 Hz pacing frequency, with a bipolar pulse of 3 ms duration, using a pair of platinum wires placed on opposite sides of the chamber connected to a MyoPacer stimulator. […] The IonWizard software or MyoBLAZER Analysis software analyzed the periodicity in the optical density of these bands by means of a fast Fourier transform algorithm.
Pro-arrhythmia markers. […] STV (STV=Σ|CAn+1−CAn|(20×√2)^−1) was calculated with the last 20 transients of each control and test article concentration period. […]

[2] = molecular target: human ethera-go-go-related gene (hERG) potassium channels (Homo sapiens (Human), UniProt Q12809); conditions: Alper, K. et al 2016; cited from earlier work
human cardiomyocytes = conditions: Rubi, L. et al 2017; cited from earlier work
male F344 rats [3] = experiment: Morphine self-administration, repeated dosing regimen; assay type: in vivo, rat
male F344 rats [4] = experiment: Morphine intravenous self-administration, single administration; assay type: in vivo, rat; conditions: 40 mg/kg IP

CCC1CC2C[C@H]3c4oc5ccc(O)cc5c4CCN2C13 (stereo partly drawn) [(16R)-Oxa-noribogaine]
ED50, analgesia in tail-flick test (C57BL/6J mice): 2.8 mg/kg | IC50 (hSERT; ± SEM, read-out: hSERT (IC50)): 450 ± 70 nM | IC50 (rVMAT2; ± SEM, read-out: rVMAT2 (IC50)): 140 ± 30 nM | % efficacy of control agonist (KOR: U-50,488) maximal response at 1 μM (rKOR; cAMP): (96%) | EC50 (rKOR; cAMP, read-out: rKOR (EC50)): < 10 nM

CCC1CC2C[C@@H]3c4oc5ccc(O)cc5c4CCN2C13 (stereo partly drawn) [(16S)-Oxa-noribogaine]
ED50, analgesia in tail-flick test (C57BL/6J mice): > 30 mg/kg | IC50 (hSERT; ± SEM, read-out: hSERT (IC50)): 2900 ± 680 nM | IC50 (rVMAT2; ± SEM, read-out: rVMAT2 (IC50)): 2800 ± 550 nM | % efficacy of control agonist (KOR: U-50,488) maximal response at 1 μM (rKOR; cAMP): (25%) | EC50 (rKOR; cAMP, read-out: rKOR (EC50)): ~300 nM

CC[C@H]1C[C@H]2C[C@H]3c4[nH]c5ccc(O)cc5c4CCN(C2)C13 [noribogaine]
pro-arrhythmia effects [1]: exhibits pro-arrhytmia effects | hERG block IC50 [2]: low micromolar | action potential repolarization (human cardiomyocytes): significantly delayed action potential repolarization

CCC1CC2CC3c4oc5ccc(O)cc5c4CCN(C2)C13 (centres unmarked) [oxa-noribogaine]
pro-arrhythmia effects [1]: no pro-arrhytmia effects even at high concentrations | morphine intake in the following three sessions (male F344 rats [3]; after first 10 mg/kg): approximately 40 % of baseline levels | morphine intake recovered after administration (male F344 rats [3]; after first 40 mg/kg): approximately 60 % of VEH levels | morphine intake at the end of the dosing regimen (male F344 rats [3]; after last 5 mg/kg): approximately 8 % of baseline levels | morphine intake in the following session (male F344 rats [3]; after second 10 mg/kg): approximately 25 % of baseline levels | morphine intake recovered over following three days (male F344 rats [3]; after second 40 mg/kg): approximately 50% | morphine intake eighteen days following the last administration (male F344 rats [3]; eighteen days after last 5 mg/kg): 40% | morphine intake in the session following administration (male F344 rats [3]; first 10 mg/kg): approximately 4 infusions | IC50 (hSERT): 900 ± 120 nM | IC50 (rVMAT2): 670 ± 110 nM | EC50 (rKOR): < 10 nM | Emax (rKOR; cAMP, read-out: % efficacy of control agonist (KOR: U-50,488) maximal response at 1 μM): 102%

epi-oxa-noribogaine
morphine intake, duration of reduction (male F344 rats [4]): significantly decreased morphine self-administration for three sessions
